ChEMBL document CHEMBL2380242, “Discovery of novel orally bioavailable GPR40 agonists” (Bioorg Med Chem Lett, 2013)

Biological target: T1, Free fatty acid receptor 1 (Homo sapiens, UniProt O14842)
Assay: Agonist activity at human GPR40 transfected in CHO cells by calcium flux assay relative to TAK-875
Format: functional, cell-based

T1 sequence (O14842 whole entry): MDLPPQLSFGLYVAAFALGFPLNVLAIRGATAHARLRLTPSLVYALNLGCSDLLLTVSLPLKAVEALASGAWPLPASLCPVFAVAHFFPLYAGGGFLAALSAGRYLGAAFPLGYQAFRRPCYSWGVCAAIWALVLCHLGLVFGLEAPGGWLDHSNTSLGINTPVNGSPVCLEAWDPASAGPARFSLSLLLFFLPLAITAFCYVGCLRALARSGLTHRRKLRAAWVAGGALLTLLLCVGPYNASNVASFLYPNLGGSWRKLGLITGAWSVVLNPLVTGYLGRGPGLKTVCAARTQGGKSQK

SMILES | Emax
O=C(O)C[C@@H]1COc2cc3c(cc21)OC[C@@H](c1cccc(-c2ccccc2Cl)c1)O3 | 99%
Cc1cc(OCCCS(C)(=O)=O)cc(C)c1-c1cccc([C@@H]2COc3cc4c(cc3O2)OC[C@H]4CC(=O)O)c1 | 124%
CS(=O)(=O)CCCOc1ccc(-c2cc(F)cc(C3COc4cc5c(cc4O3)OC[C@H]5CC(=O)O)c2)c(Cl)c1 (stereo partly drawn) | 69%
O=C(O)C[C@@H]1COc2cc3c(cc21)OCC(c1cccc(-c2ccccc2F)c1)O3 (stereo partly drawn) | 115%
CS(=O)(=O)CCCOc1ccc(-c2cc(C3COc4cc5c(cc4O3)OC[C@H]5CC(=O)O)ccc2F)c(Cl)c1 (stereo partly drawn) | 66%
Cc1cc(OCCCS(C)(=O)=O)c(F)c(C)c1-c1cccc([C@@H]2COc3cc4c(cc3O2)OC[C@H]4CC(=O)O)c1 | 83%
O=C(O)C[C@@H]1COc2cc3c(cc21)OCC(c1cc(F)cc(Br)c1)O3 (stereo partly drawn) | 38%
O=C(O)C[C@@H]1COc2cc3c(cc21)OCC(c1cccc(Br)c1)O3 (stereo partly drawn) | 89%
O=C(O)C[C@@H]1COc2cc3c(cc21)OC[C@H](c1cccc(Cl)c1)O3 | 72%
O=C(O)C[C@@H]1COc2cc3c(cc21)OCC(c1cccc(-c2ccccc2)c1)O3 (stereo partly drawn) | 105%
Cc1cc(OCCCS(C)(=O)=O)ccc1-c1cccc(C2COc3cc4c(cc3O2)OC[C@H]4CC(=O)O)c1 (stereo partly drawn) | 53%

Next, values leading:

Emax | SMILES
61% | O=C(O)C[C@@H]1COc2cc3c(cc21)OC[C@H](c1ccc(Cl)c(Cl)c1)O3
89% | Cc1ccc(C)c(-c2cccc(C3COc4cc5c(cc4O3)OC[C@H]5CC(=O)O)c2)c1 (stereo partly drawn)
111% | Cc1cc(OCCCS(C)(=O)=O)cc(C)c1-c1cccc([C@H]2COc3cc4c(cc3O2)OC[C@H]4CC(=O)O)c1
104% | O=C(O)C[C@@H]1COc2cc3c(cc21)OCC(c1cccc(-c2ccccc2C(F)(F)F)c1)O3 (stereo partly drawn)
38% | O=C(O)C[C@@H]1COc2cc3c(cc21)OCC(c1ccc(Br)cc1)O3 (stereo partly drawn)
103% | O=C(O)C[C@@H]1COc2cc3c(cc21)OCC(c1cccc(-c2ccc(F)cc2Cl)c1)O3 (stereo partly drawn)
90% | Cc1ccc(-c2cccc(C3COc4cc5c(cc4O3)OC[C@H]5CC(=O)O)c2)c(C)c1 (stereo partly drawn)
55.6% | O=C(O)C[C@@H]1COc2cc3c(cc21)OC[C@H](c1cccc(C(F)(F)F)c1)O3

Biological target: T1, Free fatty acid receptor 1
Assay: Agonist activity at human GPR40 transfected in CHO cells by calcium flux assay
Format: functional, cell-based

SMILES | EC50
O=C(O)C[C@@H]1COc2cc3c(cc21)OC[C@@H](c1cccc(-c2ccccc2Cl)c1)O3 | 66.7 nM
Cc1cc(OCCCS(C)(=O)=O)cc(C)c1-c1cccc([C@@H]2COc3cc4c(cc3O2)OC[C@H]4CC(=O)O)c1 | 55.9 nM
CS(=O)(=O)CCCOc1ccc(-c2cc(F)cc(C3COc4cc5c(cc4O3)OC[C@H]5CC(=O)O)c2)c(Cl)c1 (stereo partly drawn) | 205 nM
O=C(O)C[C@@H]1COc2cc3c(cc21)OCC(c1cccc(-c2ccccc2F)c1)O3 (stereo partly drawn) | 73.2 nM
CS(=O)(=O)CCCOc1ccc(-c2cc(C3COc4cc5c(cc4O3)OC[C@H]5CC(=O)O)ccc2F)c(Cl)c1 (stereo partly drawn) | 125 nM
Cc1cc(OCCCS(C)(=O)=O)c(F)c(C)c1-c1cccc([C@@H]2COc3cc4c(cc3O2)OC[C@H]4CC(=O)O)c1 | 82.4 nM
O=C(O)C[C@@H]1COc2cc3c(cc21)OCC(c1cc(F)cc(Br)c1)O3 (stereo partly drawn) | 105 nM
O=C(O)C[C@@H]1COc2cc3c(cc21)OCC(c1cccc(Br)c1)O3 (stereo partly drawn) | 54.7 nM
O=C(O)C[C@@H]1COc2cc3c(cc21)OC[C@H](c1cccc(Cl)c1)O3 | 220 nM
O=C(O)C[C@@H]1COc2cc3c(cc21)OCC(c1cccc(-c2ccccc2)c1)O3 (stereo partly drawn) | 65.4 nM
Cc1cc(OCCCS(C)(=O)=O)ccc1-c1cccc(C2COc3cc4c(cc3O2)OC[C@H]4CC(=O)O)c1 (stereo partly drawn) | 123 nM

Further lines, results first:

EC50 | SMILES
191 nM | O=C(O)C[C@@H]1COc2cc3c(cc21)OC[C@H](c1ccc(Cl)c(Cl)c1)O3
88 nM | Cc1ccc(C)c(-c2cccc(C3COc4cc5c(cc4O3)OC[C@H]5CC(=O)O)c2)c1 (stereo partly drawn)
282 nM | Cc1cc(OCCCS(C)(=O)=O)cc(C)c1-c1cccc([C@H]2COc3cc4c(cc3O2)OC[C@H]4CC(=O)O)c1
74.5 nM | O=C(O)C[C@@H]1COc2cc3c(cc21)OCC(c1cccc(-c2ccccc2C(F)(F)F)c1)O3 (stereo partly drawn)
> 10000 nM | O=C(O)C[C@@H]1COc2cc3c(cc21)OCC(c1ccc(Br)cc1)O3 (stereo partly drawn)
74.7 nM | O=C(O)C[C@@H]1COc2cc3c(cc21)OCC(c1cccc(-c2ccc(F)cc2Cl)c1)O3 (stereo partly drawn)
38.7 nM | Cc1ccc(-c2cccc(C3COc4cc5c(cc4O3)OC[C@H]5CC(=O)O)c2)c(C)c1 (stereo partly drawn)
30.4 nM | O=C(O)C[C@@H]1COc2cc3c(cc21)OC[C@H](c1cccc(C(F)(F)F)c1)O3
